Data on 18 compounds can be found in patent publication US10273237B2, “Imidazopyridazine compounds useful as modulators of IL-12, IL-23 and/or IFN-α responses” (BRISTOL-MYERS SQUIBB COMPANY, priority 2013, dated 2019).

What is called IC50 is the concentration that inhibits the measured activity by half. As a reminder, the EC50 is the concentration at which the effect is half-maximal. Read a high EC50 as a less potent agent.

In assay [1] the test system is IL-23-stimulated Kit225 T cells with STAT-dependent luciferase reporter. The experiment in a line: Kit225 T cell assay, STAT-dependent luciferase reporter, IL-23 stimulated. Format: cell-based, human. The conditions noted are these: Homo sapiens, KIT225, 20 ng/mL human recombinant IL-23, 5-6 hours, read-out: IL-23 Kit225 Reporter, LE (IC50). The procedure, abridged: (§1)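 Kit225 T cells carrying a stably integrated STAT-dependent luciferase reporter, in RPMI with 10% heat-inactivated FBS, stimulated with 20 ng/mL human recombinant IL-23 or 200 U/mL human recombinant IFNα for 5-6 h. Luciferase expression read by Steady-Glo luminescence.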
(In general: Reporter assays use an easily measured gene product as a stand-in for the process of interest.)

Assay [2] has as its system IFNα-stimulated Kit225 T cells with STAT-dependent luciferase reporter. The experiment in a line: Kit225 T cell assay, STAT-dependent luciferase reporter, IFNα stimulated. The class given is cell-based, human. The following applies: Homo sapiens, KIT225, 200 U/mL human recombinant IFNα, 5-6 hours, read-out: IFNa Kit225 Reporter, LE (IC50). The procedure, abridged: as §1

Assay [3] deals with T1, His-tagged protein corresponding to amino acids 575-869 of human Tyk2 (Homo sapiens, UniProt P29597).
T1 construct: made in house
The experiment in a line: Probe displacement assay (scintillation proximity, radiolabeled probe). Format: binding. The following applies: 2.5 nM Tyk2 (575-869), 40 nM [3H] probe, 30 minutes at room temperature. The method, then:
The preparation of radiolabeled probe, (R)—N-(1-(3-(8-methyl-5-(methylamino)-8H-imidazo[4,5-d]thiazolo[5,4-b]pyridin-2-yl)phenyl)ethyl)-2-([^3H]methylsulfonyl)benzamide, was performed as described below: […]
For orientation: SPA uses beads or plates that emit light when radiolabelled molecules are held near them.

T1 sequence (P29597 with tags, fused parts or gaps): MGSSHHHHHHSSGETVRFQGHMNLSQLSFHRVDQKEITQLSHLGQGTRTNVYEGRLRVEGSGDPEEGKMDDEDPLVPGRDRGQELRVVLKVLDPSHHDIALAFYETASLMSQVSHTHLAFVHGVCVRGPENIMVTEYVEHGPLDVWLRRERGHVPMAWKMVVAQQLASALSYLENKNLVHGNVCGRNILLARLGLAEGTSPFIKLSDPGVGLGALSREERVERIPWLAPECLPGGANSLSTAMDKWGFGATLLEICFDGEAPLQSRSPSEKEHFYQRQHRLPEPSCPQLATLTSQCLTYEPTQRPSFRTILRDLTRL

For `CNc1cc(Nc2cccn(-c3ncc(C)cn3)c2=O)nn2c(C(=O)N[C@@H]3C[C@@H]3F)cnc12` [Example 83], the IC50 in assay [1] was found to be 200 nM; in assay [2] it was 120 nM. Besides, the EC50 in assay [3] turned out to be 2 nM.
As to `CNc1cc(Nc2cccn(C3(C)CC3)c2=O)nn2c(C(=O)NCC(C)(C)CO)cnc12` [Example 163], the IC50 in assay [1] was 240 nM; in assay [2] it was 70 nM. Further, the midpoint of the response in assay [3], the EC50, lay at 8 nM.
Consider `CNc1cc(Nc2cccn(-c3cccc(C#N)c3)c2=O)nn2c(C(=O)NC3CC3)cnc12` [Example 126], for which the half-maximal inhibitory concentration (IC50) in assay [1] was found to be 300 nM; in assay [2] it was 190 nM. In assay [3], the EC50 was 8 nM.
For `CCC(CC)CNC(=O)c1cnc2c(NC)cc(Nc3cccn(-c4ccccc4)c3=O)nn12` [Example 187], the IC50 in assay [1] was 220 nM; in assay [2] it was 380 nM. The same compound returned an EC50 in assay [3] of 29 nM.
With `CNc1cc(Nc2cccn(-c3cc(C)n(C)n3)c2=O)nn2c(C(=O)NC3CCC3)cnc12` [Example 155], the IC50 in assay [1] is 30 nM; in assay [2] it was 20 nM. The same compound yielded a concentration giving a half-maximal response (EC50) in assay [3] of 7 nM.
Regarding `CNc1cc(Nc2cccn(C)c2=O)nn2c(C(=O)NCC3CCC3)cnc12` [Example 214], the values for the IC50 in assay [1] and in assay [2] were 360 nM and 810 nM, respectively. In addition, the EC50 in assay [3] worked out at 73 nM.
As to `CNc1cc(Nc2cc(F)cn(CCOC)c2=O)nn2c(C(=O)NC3CC3)cnc12` [Example 118], the values for the 50% inhibitory concentration (IC50) in assay [1] and in assay [2] were 270 nM and 150 nM, respectively. Further, a half-maximal effect in assay [3] (EC50) was put at 18 nM.
Take `CNc1cc(Nc2cccn(-c3cccc(C(C)O)n3)c2=O)nn2c(C(=O)NC3CCC3)cnc12` (stereo not drawn) [Example 86]: the IC50 in assay [1] and in assay [2] was 30 nM in each case. The compound also showed an EC50 in assay [3] of 6 nM.
In the case of `CNc1cc(Nc2cccn(-c3ccc(C#N)cc3)c2=O)nn2c(C(=O)NCC(C)(C)CO)cnc12` [Example 25], the IC50 was 200 nM in assay [1] and 100 nM in assay [2]. The compound further showed an EC50 in assay [3] of 16 nM.
Turning to `CNc1cc(Nc2cccn(-c3cccc(F)n3)c2=O)nn2c(C(=O)N[C@@H]3C[C@@H]3F)cnc12` [Example 145], the half-maximal inhibitory concentration (IC50) worked out at 30 nM in assay [1] and 10 nM in assay [2]. The EC50 in assay [3] is 5 nM.
In the same order, the values of `CNc1cc(Nc2cc(F)cn(-c3ccc(C)nn3)c2=O)nn2c(C(=O)NC3CCC3)cnc12` [Example 93] are 90 nM, 30 nM and 12 nM.
As for `CNc1cc(Nc2cccn(-c3ccc(C(F)(F)F)cc3)c2=O)nn2c(C(=O)NCC3(CO)CC3)cnc12` [Example 133], the IC50 in assay [1] stood at 430 nM; in assay [2], 200 nM. Moreover, a half-maximal response in assay [3] (EC50) required 19 nM.
Turning to `CNc1cc(Nc2ccnn(-c3ccccc3)c2=O)nn2c(C(=O)N[C@@H]3C[C@@H]3F)cnc12` [Example 180], the results for the IC50 in assay [1] and in assay [2] were 50 nM and 20 nM, respectively. Further, in assay [3], the EC50 is 17 nM.
As to `CNc1cc(Nc2cccn(-c3cccc(F)n3)c2=O)nn2c(C(=O)N[C@@H]3CCOC3)cnc12` [Example 61], the results for the IC50 in assay [1] and in assay [2] were 210 nM and 180 nM, respectively. The compound further came in with an EC50 in assay [3] of 20 nM.
For `CNc1cc(Nc2cccn(-c3ccccn3)c2=O)nn2c(C(=O)NC3CC3)cnc12` [Example 32], the half-inhibitory concentration (IC50) in assay [1] was found to be 220 nM; in assay [2], 80 nM. The same compound displayed a half-maximal effective concentration (EC50) in assay [3] of 27 nM.
Turning to `CNc1cc(Nc2cccn(-c3ccc(C)nn3)c2=O)nn2c(C(=O)NC3CC3)cnc12` [Example 63], the half-inhibitory concentration (IC50) in assay [1] was 140 nM; in assay [2] it was 110 nM. In addition, in assay [3], the response was half-maximal at 7 nM (EC50).
As to `CNc1cc(Nc2cccn(-c3ccccn3)c2=O)nn2c(C(=O)NCC(C)(C)CO)cnc12` [Example 197], the IC50 in assay [1] and in assay [2] was 60 nM each time. Besides, in assay [3], it took 16 nM to reach a half-maximal effect (EC50).
As for `CNc1cc(Nc2cccn(-c3ccccn3)c2=O)nn2c(C(=O)NCCF)cnc12` [Example 101], the IC50 in assay [1] is 140 nM; in assay [2] it was 170 nM. The compound also returned an EC50 in assay [3] of 12 nM.
